Converted amounts (≈) assume the structure as drawn. Like-named read-outs stand apart in the source and are kept apart here. Residues, ends and D or L forms follow the SMILES beside them. *: point of attachment. Palmitoyl = CCCCCCCCCCCCCCCC(=O)*; Myristoyl = CCCCCCCCCCCCCC(=O)*; Lauroyl = CCCCCCCCCCCC(=O)*; Decanoyl = CCCCCCCCCC(=O)*
Columns and labels:
S. aureus PCM2054 = assay type: cell-based, Staphylococcus aureus
Experimental: (§1) The evaluation of the antimicrobial activity of the synthesized lipopeptides was performed against the following reference bacterial and fungal strains: Staphylococcus aureus PCM 1650, Staphylococcus aureus PCM 2054, Staphylococcus epidermidis PCM 521, Staphylococcus epidermidis PCM 2118, Escherichia coli PCM 2057, Candida albicans PCM 2566, Candida glabrata CCM 8270, Candida krusei CCM 8271, Candida parapsilosis CCM 8260.
(§2) For the initial cultivation of the bacteria and fungi, Luria-Bertani broth (LB, Biomaxima, Lublin, Poland) and Sabouraud Dextrose broth (SB, Biomaxima, Lublin, Poland) were used, respectively. Antimicrobial properties of the compounds were analyzed through the determination of MIC (minimal inhibitory concentrations) by my means of the serial micro-dilution technique according to the guidelines of Clinical & Laboratory Standard Institute (CLSI) established for aerobic bacteria and yeasts.
(§3) According to the procedures, Mueller–Hinton broth (MHB) was used as the working medium for the analysis of the bacterial susceptibility, while RPMI-1640 (with L-glutamine, without sodium bicarbonate) growth medium buffered with MOPS (morpholinepropanesulfonic acid) and supplemented with 2% glucose was used for the experiments with the fungi.
(§4) The experiments were carried out for 24 h at 37 and 35 °C for the bacteria and fungi, respectively. Then, the absorbance was measured at 600 nm for each well of the 96-well plate using a microplate reader (Sunrise TM, Tecan Trading AG, Männedorf, Switzerland). Based on the obtained results, the degree of inhibition of the growth of microorganisms (expressed in %) in the presence of the tested compounds range was determined with respect to the control probes. Inoculated wells without peptide were treated as a positive control (100% growth), and the wells containing working medium only were defined as a negative control (0% growth). All measurements were repeated in triplicate.

E. coli PCM2057 = assay type: cell-based, Escherichia coli
Experimental: as §1, §2, §3, §4

S. epidermidis PCM521 = assay type: cell-based, Staphylococcus epidermidis
Experimental: as §1, §2, §3, §4

S. epidermidis PCM2118 = assay type: cell-based, Staphylococcus epidermidis
Experimental: as §1, §2, §3, §4

C. glabrata CCM8270 = assay type: cell-based, Candida glabrata
Experimental: as §1, §2, §3, §4

C. albicans PCM2566 = assay type: cell-based, Candida albicans
Experimental: as §1, §2, §3, §4

C. krusei CCM8271 = assay type: cell-based, Candida krusei
Experimental: as §1, §2, §3, §4

C. parapsilosis CCM 8260 = assay type: cell-based, Candida parapsilosis
Experimental: as §1, §2, §3, §4

S. aureus PCM1650 = assay type: cell-based, Staphylococcus aureus
Experimental: as §1, §2, §3, §4

[1] = Mueller–Hinton broth, inoculum 5 × 10^5 CFU/mL, 24 h, 37 °C, absorbance 600 nm, triplicate
[2] = RPMI-1640 with MOPS and 2% glucose, inoculum 5 × 10^3 CFU/mL, 24 h, 35 °C, absorbance 600 nm, triplicate

| SMILES | MIC, S. aureus PCM2054 (S. aureus PCM2054; PCM2054, 24 h) | MIC, E. coli PCM2057 (E. coli PCM2057; PCM2057, 24 h) | MIC, S. epidermidis PCM521 (S. epidermidis PCM521; PCM521, 24 h) | MIC, S. epidermidis PCM2118 (S. epidermidis PCM2118; PCM2118, 24 h) | MIC, C. glabrata CCM8270 (C. glabrata CCM8270; CCM8270, 24 h) | MIC, C. albicans PCM2566 (C. albicans PCM2566; PCM2566, 24 h) | MIC, C. krusei CCM8271 (C. krusei CCM8271; CCM8271, 24 h) | MIC, C. parapsilosis CCM 8260 (C. parapsilosis CCM 8260; CCM 8260, 24 h) | MIC, S. aureus PCM2054 (S. aureus PCM2054; [1]) | MIC, E. coli PCM2057 (E. coli PCM2057; [1]) | MIC, S. epidermidis PCM521 (S. epidermidis PCM521; [1]) | MIC, S. epidermidis PCM2118 (S. epidermidis PCM2118; [1]) | MIC, C. glabrata CCM8270 (C. glabrata CCM8270; [2]) | MIC, C. albicans PCM2566 (C. albicans PCM2566; [2]) | MIC, C. krusei CCM8271 (C. krusei CCM8271; [2]) | MIC, C. parapsilosis CCM 8260 (C. parapsilosis CCM 8260; [2]) | MIC, S. aureus PCM1650 (S. aureus PCM1650; PCM1650, 24 h) | MIC, S. aureus PCM1650 (S. aureus PCM1650; [1]) |
| --- | --- | --- | --- | --- | --- | --- | --- | --- | --- | --- | --- | --- | --- | --- | --- | --- | --- | --- |
| CCCCCCCCCC(=O)N[C@H](C(=O)N[C@@H](CCCCN)C(=O)N[C@@H](CCCCN)C(=O)N[C@H](C(=O)N[C@@H](CC(C)C)C(=O)N[C@@H](CO)C(=O)N[C@@H](CCCCN)C(=O)N[C@H](C(=O)N[C@@H](CCCCN)C(=O)N[C@@H](CCCCN)C(=O)N[C@@H](CC(C)C)C(=O)N[C@@H](CC(C)C)C(=O)N[C@@H](CCCCN)C(N)=O)[C@@H](C)CC)[C@@H](C)CC)[C@@H](C)CC [C10-LK6] (Decanoyl-IKKILSKIKKLLK-NH2) | 50 µg/mL (≈ 29.3 µM) | >50 µg/mL | 6.25 µg/mL (≈ 3.66 µM) | 6.25 µg/mL (≈ 3.66 µM) | 6.25 µg/mL (≈ 3.66 µM) | 6.25 µg/mL (≈ 3.66 µM) | 6.25 µg/mL (≈ 3.66 µM) | 6.25 µg/mL (≈ 3.66 µM) | – | – | – | – | – | – | – | – | – | – |
| CCCCCCCCCCCC(=O)N[C@@H](CCCCN)C(=O)N[C@@H](CCCNC(=N)N)C(=O)N[C@@H](Cc1ccccc1)C(=O)N[C@@H](CCCCN)C(=O)N[C@@H](CCCCN)C(=O)N[C@@H](Cc1ccccc1)C(=O)N[C@@H](Cc1ccccc1)C(=O)N[C@@H](CCCCN)C(=O)N[C@@H](CCCCN)C(=O)N[C@@H](CC(C)C)C(=O)N[C@@H](CCCCN)C(N)=O [C12-ATRA-1] (Lauroyl-KRFKKFFKKLK-NH2) | – | – | – | – | – | – | – | – | 3.9 µg/mL (≈ 2.32 µM) | 31.25 µg/mL (≈ 18.6 µM) | 3.13 µg/mL (≈ 1.86 µM) | 3.13 µg/mL (≈ 1.86 µM) | 6.25 µg/mL (≈ 3.72 µM) | 2.5 µg/mL (≈ 1.49 µM) | 2.5 µg/mL (≈ 1.49 µM) | 12.5 µg/mL (≈ 7.44 µM) | – | – |
| CCCCCCCCCCCC(=O)N[C@H](C(=O)N[C@@H](CCCCN)C(=O)N[C@@H](CCCCN)C(=O)N[C@H](C(=O)N[C@@H](CC(C)C)C(=O)N[C@@H](CO)C(=O)N[C@@H](CCCCN)C(=O)N[C@H](C(=O)N[C@@H](CCCCN)C(=O)N[C@@H](CCCCN)C(=O)N[C@@H](CC(C)C)C(=O)N[C@@H](CC(C)C)C(=O)N[C@@H](CCCCN)C(N)=O)[C@@H](C)CC)[C@@H](C)CC)[C@@H](C)CC [C12-LK6] (Lauroyl-IKKILSKIKKLLK-NH2) | 50 µg/mL (≈ 28.8 µM) | >50 µg/mL | 25 µg/mL (≈ 14.4 µM) | 6.25 µg/mL (≈ 3.6 µM) | 3.13 µg/mL (≈ 1.8 µM) | 6.25 µg/mL (≈ 3.6 µM) | 6.25 µg/mL (≈ 3.6 µM) | 6.25 µg/mL (≈ 3.6 µM) | – | – | – | – | – | – | – | – | 25 µg/mL (≈ 14.4 µM) | – |
| CCCCCCCCCCCC(=O)N[C@H](C(=O)N[C@@H](CC(N)=O)C(=O)N[C@@H](Cc1c[nH]c2ccccc12)C(=O)N[C@@H](CCCCN)C(=O)N[C@@H](CCCCN)C(=O)N[C@H](C(=O)N[C@@H](CC(C)C)C(=O)NCC(=O)N[C@@H](CCCCN)C(=O)N[C@H](C(=O)N[C@H](C(=O)N[C@@H](CCCCN)C(=O)N[C@H](C(=O)N[C@@H](C)C(=O)N[C@@H](CCCCN)C(N)=O)C(C)C)[C@@H](C)CC)[C@@H](C)CC)C(C)C)C(C)C [C12-LL-I] (Lauroyl-VNWKKVLGKIIKVAK-NH2) | – | – | – | – | – | – | – | – | 12.5 µg/mL (≈ 6.56 µM) | >50 µg/mL | 12.5 µg/mL (≈ 6.56 µM) | 6.25 µg/mL (≈ 3.28 µM) | 12.5 µg/mL (≈ 6.56 µM) | >50 µg/mL | 12.5 µg/mL (≈ 6.56 µM) | 3.13 µg/mL (≈ 1.64 µM) | – | 12.5 µg/mL (≈ 6.56 µM) |
| CCCCCCCCCCCCCC(=O)N[C@H](C(=O)N[C@@H](CCCCN)C(=O)N[C@@H](CCCCN)C(=O)N[C@H](C(=O)N[C@@H](CC(C)C)C(=O)N[C@@H](CO)C(=O)N[C@@H](CCCCN)C(=O)N[C@H](C(=O)N[C@@H](CCCCN)C(=O)N[C@@H](CCCCN)C(=O)N[C@@H](CC(C)C)C(=O)N[C@@H](CC(C)C)C(=O)N[C@@H](CCCCN)C(N)=O)[C@@H](C)CC)[C@@H](C)CC)[C@@H](C)CC [C14-LK6] (Myristoyl-IKKILSKIKKLLK-NH2) | 50 µg/mL (≈ 28.4 µM) | >50 µg/mL | 25 µg/mL (≈ 14.2 µM) | 25 µg/mL (≈ 14.2 µM) | 12.5 µg/mL (≈ 7.09 µM) | 6.25 µg/mL (≈ 3.55 µM) | 6.25 µg/mL (≈ 3.55 µM) | 6.25 µg/mL (≈ 3.55 µM) | – | – | – | – | – | – | – | – | – | – |
| CCCCCCCCCCCCCC(=O)N[C@H](C(=O)N[C@@H](CC(N)=O)C(=O)N[C@@H](Cc1c[nH]c2ccccc12)C(=O)N[C@@H](CCCCN)C(=O)N[C@@H](CCCCN)C(=O)N[C@H](C(=O)N[C@@H](CC(C)C)C(=O)NCC(=O)N[C@@H](CCCCN)C(=O)N[C@H](C(=O)N[C@H](C(=O)N[C@@H](CCCCN)C(=O)N[C@H](C(=O)N[C@@H](C)C(=O)N[C@@H](CCCCN)C(N)=O)C(C)C)[C@@H](C)CC)[C@@H](C)CC)C(C)C)C(C)C [C14-LL-I] (Myristoyl-VNWKKVLGKIIKVAK-NH2) | – | – | – | – | – | – | – | – | >50 µg/mL | >50 µg/mL | 12.5 µg/mL (≈ 6.46 µM) | 12.5 µg/mL (≈ 6.46 µM) | 12.5 µg/mL (≈ 6.46 µM) | >50 µg/mL | 12.5 µg/mL (≈ 6.46 µM) | 3.13 µg/mL (≈ 1.62 µM) | – | – |
| CCCCCCCCCCCCCCCC(=O)N[C@H](C(=O)N[C@@H](CCCCN)C(=O)N[C@@H](CCCCN)C(=O)N[C@H](C(=O)N[C@@H](CC(C)C)C(=O)N[C@@H](CO)C(=O)N[C@@H](CCCCN)C(=O)N[C@H](C(=O)N[C@@H](CCCCN)C(=O)N[C@@H](CCCCN)C(=O)N[C@@H](CC(C)C)C(=O)N[C@@H](CC(C)C)C(=O)N[C@@H](CCCCN)C(N)=O)[C@@H](C)CC)[C@@H](C)CC)[C@@H](C)CC [C16-LK6] (Palmitoyl-IKKILSKIKKLLK-NH2) | >50 µg/mL | >50 µg/mL | 50 µg/mL (≈ 27.9 µM) | 50 µg/mL (≈ 27.9 µM) | >50 µg/mL | 6.25 µg/mL (≈ 3.49 µM) | 25 µg/mL (≈ 14 µM) | 50 µg/mL (≈ 27.9 µM) | – | – | – | – | – | – | – | – | – | – |
| CCCCCCCCCCCCCCCC(=O)N[C@H](C(=O)N[C@@H](CC(N)=O)C(=O)N[C@@H](Cc1c[nH]c2ccccc12)C(=O)N[C@@H](CCCCN)C(=O)N[C@@H](CCCCN)C(=O)N[C@H](C(=O)N[C@@H](CC(C)C)C(=O)NCC(=O)N[C@@H](CCCCN)C(=O)N[C@H](C(=O)N[C@H](C(=O)N[C@@H](CCCCN)C(=O)N[C@H](C(=O)N[C@@H](C)C(=O)N[C@@H](CCCCN)C(N)=O)C(C)C)[C@@H](C)CC)[C@@H](C)CC)C(C)C)C(C)C [C16-LL-I] (Palmitoyl-VNWKKVLGKIIKVAK-NH2) | – | – | – | – | – | – | – | – | >50 µg/mL | >50 µg/mL | 25 µg/mL (≈ 12.7 µM) | 25 µg/mL (≈ 12.7 µM) | >50 µg/mL | >50 µg/mL | >50 µg/mL | 12.5 µg/mL (≈ 6.37 µM) | – | – |
| CC[C@H](C)[C@H](N)C(=O)N[C@@H](CCCCN)C(=O)N[C@@H](CCCCN)C(=O)N[C@H](C(=O)N[C@@H](CC(C)C)C(=O)N[C@@H](CO)C(=O)N[C@@H](CCCCN)C(=O)N[C@H](C(=O)N[C@@H](CCCCN)C(=O)N[C@@H](CCCCN)C(=O)N[C@@H](CC(C)C)C(=O)N[C@@H](CC(C)C)C(=O)N[C@@H](CCCCN)C(N)=O)[C@@H](C)CC)[C@@H](C)CC [LK6, reference compound] (H-IKKILSKIKKLLK-NH2) | >50 µg/mL | >50 µg/mL | 6.25 µg/mL (≈ 4.03 µM) | 6.25 µg/mL (≈ 4.03 µM) | 31.25 µg/mL (≈ 20.1 µM) | 50 µg/mL (≈ 32.2 µM) | 12.5 µg/mL (≈ 8.05 µM) | 12.5 µg/mL (≈ 8.05 µM) | – | – | – | – | – | – | – | – | – | – |

From article PMC9959048, “Lipidation of Naturally Occurring α-Helical Antimicrobial Peptides as a Promising Strategy for Drug Design” (International Journal of Molecular Sciences, 2023)
